Data published in patent publication US20190328753A1, “COMPOSITIONS AND METHODS FOR TREATING OCULAR DISEASES” (priority 2015, published 2019).
“And” between values parts separate entries of the source, which are not always exact repeats. Identical values can stand only once. “Also recorded” adds a separate entry of the source.

Experiments:
[1] = test system: patients with moderate to severe meibomian gland disease; experiment: Pilot study (Example 3): topical spironolactone ophthalmic suspension in MGD, retrospective pre-post
[2] = Solubility of spironolactone; assay type: physicochemical; details: with the help of Pluronic F127
Experimental: The present inventors were able to get spironolactone into solution at 0.015 mg/ml with the help of Pluronic F127.

Corneal epithelial cells [3] = experiment: In vitro toxicity / cell morphology in corneal epithelial cells (Example 7); assay type: cell-based
Experimental: (§1) Corneal epithelial cells were cultured in vitro to about 30% confluence and treated with various dilutions of a 0.025 mg/mL spironolactone eye drop formulation (i.e. 50×, 100×, 500×, 1000×, and 5000×, corresponding to 0.0005 mg/ml, 0.00025 mg/ml, 0.00005 mg/ml, 0.000025 mg/ml, and 0.000005 mg/ml). The cell medium with spironolactone was changed every two days. On the seventh day, the cells were stained for lipids with Oil Red O.
Toxicity to cells was also taken into account. Toxicity in the context of this disclosure refers to any amount of cell death upon exposure to the composition. Little to no toxicity or relatively no toxicity refers to some amount of cell death to no cell death upon exposure to the composition. Alternatively or additionally, the morphology should look phenotypically normal for the cells. Toxicity can be measured quantitatively or qualitatively, in vivo or in vitro. Standard assays, such as an LDH (lactate dehydrogenase) assay, can be used to quantify toxicity of the compositions and to determine a TC50 concentration, i.e., a concentration that results in cell death for 50% of the cells upon exposure of the cells to that concentration. […] As such, a concentration of 0.025 mg/cc or lower appears to be safe. […] Compositions with lower amounts of active agent (e.g., 0.0000025 mg/cc) may be useful for maintaining a patient's condition, without subjecting the patient to long-term toxicity, for example, once the patient has been stabilized by treatment for some amount of time with a higher concentration.

ELOVL4 gene expression = experiment: RT-PCR of ELOVL4 gene expression in HTCE cells (Example 9); assay type: cell-based, Human; details: 7th day; for ELOVL4 gene expression, induction: normalized
Experimental: HTCE cells were cultured in 6 well plates and grown to about 30% confluence. The cells were then treated with different dilutions of a 0.025 mg/ml Spironolactone eye drop formulation (i.e. 50×, 100×, 500×, 1000×, and 5000×, corresponding to 0.0005 mg/ml, 0.00025 mg/ml, 0.00005 mg/ml, 0.000025 mg/ml, and 0.000005 mg/ml). The medium with different concentrations of Spironolactone was changed every 2 days. On the 7th day, the cells were collected, and the RNA was extracted and subject to RT-PCR analysis for gene expression of ELOVL4, an enzyme involved in the biosynthesis of fatty acids (particularly very long chain fatty acids (VLCFAs)).

[4] = according to the literature; cited from earlier work
Corneal epithelial cells [5] = experiment: Lipid production in corneal epithelial cells, dilutions of 3 mg/ml formulation, Oil Red O (Example 6); assay type: cell-based; details: ninth day
Experimental: Corneal epithelial cells were cultured in vitro and treated with 0.03 mg/ml and other dilutions of a 3 mg/ml formulation of Spironolactone (100× (0.03 mg/ml), 200× (0.015 mg/ml), 500× (0.006 mg/ml), and 1000× (0.003 mg/mI)). The corneal epithelial cells were cultured in vitro to about 10-20% confluence. The cell medium with added spironolactone was changed every 2-3 days. On the ninth day, the cells were stained for lipids with Oil Red O.

Corneal epithelial cells [6] = experiment: Lipid production in corneal epithelial cells, dilutions of 0.025 mg/ml formulation, Oil Red O (Example 7); assay type: cell-based; details: seventh day
Experimental: as §1

[7] = post-treatment, n=20, lissamine green, scale 0-3
[8] = post-treatment, n=20, scale 0-4
[9] = pre vs post-treatment, n=20, positive = score decrease, scale 0-4
[10] = pre-post change, n=20, scale 0-3
[11] = pre-post change, n=20, scale 0-4
[12] = 1000× dilution (0.000025 mg/ml)
[13] = 5000× dilution (0.000005 mg/ml)

## CC(=O)SC1CC2=CC(=O)CCC2(C)C2CCC3(C)C(CCC34CCC(=O)O4)C12 (stereo not drawn) [spironolactone, 7α-acetylthio-3-oxo-17α-pregn-4-ene-21,17-carbolactone]
[1]; patients of the pilot study
  side effects after topical administration: A small percentage of the patients reported a mild temporary burning sensation in the eye
[1]; post-treatment, n = 19
  Vision OD, Mean: 0.069±0.051 log Mar units and 0.069 log Mar units
[1]; post-treatment, n=20
  Schirmer's OD, Mean: 13.6 mm
  Schirmer's OS, Mean: 14.6 mm
  Vision OS, Mean: 0.063±0.032 log Mar units and 0.063 log Mar units
[1]; [7]
  Conjunctival OD (Nasal), Mean: 0.83±0.189 and 0.83
  Conjunctival OD (Temporal), Mean: 0.55±0.181 and 0.55
  Conjunctival OS (Nasal), Mean: 0.60±0.148 and 0.60
  Conjunctival OS (Temporal), Mean: 0.40±0.134 and 0.40
  Keratitis OD Corneal, Mean: 0.050±0.050 and 0.050
  Keratitis OS Corneal, Mean: 0.20±0.156 and 0.20
[1]; [8]
  Anterior Blepharitis, Mean: 0.38±0.114 and 0.38
  Obstruction, Mean: 1.58±0.236 and 1.58
  Turbidity, Mean: 2.3±0.193 and 2.3
  Vascularity, Mean: 1.48±0.253 and 1.48
  Zone A, Mean: 3.125±0.188 and 3.125
[1]; post-treatment, n=20, scale 0-10
  Subjective Global Assessment, Mean: 4.6±0.534 and 4.6
[1]; pre vs post-treatment, n=20
  improvement of turbidity score, percent: 22.03%
  improvement of zone A score, percent: 11.97%
[1]; [9]
  mean improvement in anterior blepharitis score: 0.175±0.230
  mean improvement in obstruction score: 0.40±0.222
  mean improvement in turbidity score: 0.65±0.141
  mean improvement in vascularity score: 0.25±0.194
  mean improvement in zone A score: 0.425±0.186
[1]; pre vs post-treatment, n=20, positive = score decrease, scale 0-10
  improvement in self-reported global assessment scores: 1.4±0.597
[1]; pre-post change, n = 19
  Vision OD (log Mar units), Change %: 213.64%
  Vision OD, mean change: 0.047±0.043 log Mar units and 0.047 log Mar units
[1]; pre-post change, n=20
  Anterior Blepharitis, Change %: −31.82%
  Conjunctival OD (Nasal), Change %: −20.00%
  Conjunctival OD (Temporal), Change %: −29.49%
  Conjunctival OS (Nasal), Change %: −36.84%
  Conjunctival OS (Temporal), Change %: 20.00%
  Keratitis OD (Corneal), Change %: −50.00%
  Keratitis OS (Corneal), Change %: 0.00%
  Obstruction, Change %: −20.25%
  Schirmer's OD (mm), Change %: −3.71%
  Schirmer's OD, mean change: −0.525±1.496 mm and −0.525 mm
  Schirmer's OS (mm), Change %: 1.75%
  Schirmer's OS, mean change: 0.250±1.008 mm and 0.25 mm
  Subjective Global Assessment, Change %: −23.33%
  Turbidity, Change %: −22.03%
  Vascularity, Change %: −14.45%
  Vision OS (log Mar units), Change %: −7.20%
  Zone A, Change %: −11.97%
[1]; [10]
  Conjunctival OD (Nasal), Mean Change: −0.20±0.142 and −0.20
  Conjunctival OD (Temporal), Mean Change: −0.23±0.187 and −0.23
  Conjunctival OS (Nasal), Mean Change: −0.35±0.146 and −0.35
  Conjunctival OS (Temporal), Mean Change: 0.10±0.204 and 0.10
  Keratitis OD Corneal, mean change: −0.05±0.114 and −0.05
  Keratitis OS Corneal, mean change: 0.00±0.126 and 0.00
[1]; [11]
  Anterior Blepharitis, mean change: −0.175
  Obstruction, mean change: −0.4
  Turbidity, mean change: −0.65
  Vascularity, mean change: −0.25
  Zone A, mean change: −0.425
[1]; pre-post change, n=20, scale 0-10
  Subjective Global Assessment, mean change: −1.4
[2]
  concentration brought into solution: 15000 ng/mL
Corneal epithelial cells [3]; 0.025 mg/ml
  in vitro toxicity: some in vitro toxicity
Corneal epithelial cells [3]; 100× dilution (0.00025 mg/ml)
  in vitro toxicity / cell morphology: non confluence and some relative toxicity
Corneal epithelial cells [3]; 500× dilution (0.00005 mg/ml)
  in vitro toxicity / cell morphology: confluent nontoxic cell morphology
Corneal epithelial cells [3]; [12]
  in vitro toxicity / cell morphology: no in vitro toxicity; also recorded: confluent nontoxic cell morphology
Corneal epithelial cells [3]; [13]
  in vitro toxicity / cell morphology: confluent nontoxic cell morphology
ELOVL4 gene expression; 0.00025 mg/ml (100× dilution)
  ELOVL4 gene expression, induction: approximately 2 fold
ELOVL4 gene expression; 0.0005 mg/ml (50× dilution)
  ELOVL4 gene expression, induction: approximately 4.5 fold
ELOVL4 gene expression; remaining treatment groups (0.00005, 0.000025, 0.000005 mg/ml)
  ELOVL4 gene expression: no change relative to control
[4]
  solubility in water: practically insoluble in water
Corneal epithelial cells [5]; 0.006 mg/ml (500× dilution)
  lipid production (Oil Red O): enhanced lipid production
Corneal epithelial cells [5]; 0.015 mg/ml (200× dilution)
  lipid production (Oil Red O): enhanced lipid production
Corneal epithelial cells [5]; 0.03 mg/ml (100× dilution)
  lipid production (Oil Red O): enhanced lipid production
Corneal epithelial cells [6]; [12]
  lipid production (Oil Red O): lipid production was still present
Corneal epithelial cells [6]; [13]
  lipid production (Oil Red O): no lipid is being formed
